Reference: ChEMBL document CHEMBL5055626 (J Med Chem, 2021)
Activity calls are given as the source filed them. No cut-off for these calls is given here. Where a SMILES comes first, the peptide text is derived from it. Bridges are numbered along the chain shown (N, C = ends).

Columns and labels:
[1] = target: Neuronal acetylcholine receptor subunit alpha-7 (Rattus norvegicus, UniProt Q05941); assay: Antagonist activity at rat alpha7 nAChR expressed in xenopus oocytes assessed as inhibition of Ach- induced response at -70 mV holding potential preincubated for 5 mins followed by Ach stimulation by voltage-clamp based electrophysiological method; type: cell-based, Oocyte
Chain of Neuronal acetylcholine receptor subunit alpha-7 (Q05941 whole entry): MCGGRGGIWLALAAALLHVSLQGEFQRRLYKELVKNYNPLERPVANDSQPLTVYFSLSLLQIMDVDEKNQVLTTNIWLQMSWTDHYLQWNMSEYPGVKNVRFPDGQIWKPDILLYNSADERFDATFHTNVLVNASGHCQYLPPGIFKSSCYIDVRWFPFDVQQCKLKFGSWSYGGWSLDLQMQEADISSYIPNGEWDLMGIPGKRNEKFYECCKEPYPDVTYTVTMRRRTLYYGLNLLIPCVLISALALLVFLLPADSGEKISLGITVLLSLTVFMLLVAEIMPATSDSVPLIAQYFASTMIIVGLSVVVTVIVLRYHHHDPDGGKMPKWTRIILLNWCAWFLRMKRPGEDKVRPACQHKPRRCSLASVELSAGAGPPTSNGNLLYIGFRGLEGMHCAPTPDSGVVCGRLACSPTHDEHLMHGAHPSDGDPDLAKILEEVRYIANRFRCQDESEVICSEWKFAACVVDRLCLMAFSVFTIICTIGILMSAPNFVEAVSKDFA

[2] = target: T1, Nicotinic acetylcholine receptor alpha6/alpha3/beta4 (Homo sapiens, UniProt P30926+P32297+Q15825); assay: Antagonist activity at rat alpha6/alpha3beta4 nAChR expressed in xenopus oocytes assessed as inhibition of Ach- induced response at -70 mV holding potential preincubated for 5 mins followed by Ach stimulation by voltage-clamp based electrophysiological method; type: cell-based, Oocyte
[3] = target: Neuronal acetylcholine receptor; alpha3/beta2 (Rattus norvegicus, UniProt P04757+P12390); assay: Antagonist activity at rat alpha3beta2 nAChR expressed in xenopus oocytes assessed as inhibition of Ach- induced response at -70 mV holding potential preincubated for 5 mins followed by Ach stimulation by voltage-clamp based electrophysiological method; type: cell-based, Oocyte
Chain of Neuronal acetylcholine receptor; alpha3/beta2 (P04757 whole entry): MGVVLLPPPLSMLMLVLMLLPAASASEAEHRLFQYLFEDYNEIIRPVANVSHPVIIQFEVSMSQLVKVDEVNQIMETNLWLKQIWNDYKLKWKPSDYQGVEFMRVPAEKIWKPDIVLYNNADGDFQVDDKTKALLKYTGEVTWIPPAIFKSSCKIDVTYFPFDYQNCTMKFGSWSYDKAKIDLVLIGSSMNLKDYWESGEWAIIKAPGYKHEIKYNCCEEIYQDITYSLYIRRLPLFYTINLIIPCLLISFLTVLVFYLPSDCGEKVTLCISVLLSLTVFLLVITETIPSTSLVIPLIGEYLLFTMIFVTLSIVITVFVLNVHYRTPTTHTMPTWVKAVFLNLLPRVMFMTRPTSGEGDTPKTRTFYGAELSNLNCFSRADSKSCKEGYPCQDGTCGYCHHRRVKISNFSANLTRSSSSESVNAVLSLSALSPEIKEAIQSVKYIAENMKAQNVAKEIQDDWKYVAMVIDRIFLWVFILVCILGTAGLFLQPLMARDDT
Chain of Neuronal acetylcholine receptor; alpha3/beta2 (P12390 whole entry): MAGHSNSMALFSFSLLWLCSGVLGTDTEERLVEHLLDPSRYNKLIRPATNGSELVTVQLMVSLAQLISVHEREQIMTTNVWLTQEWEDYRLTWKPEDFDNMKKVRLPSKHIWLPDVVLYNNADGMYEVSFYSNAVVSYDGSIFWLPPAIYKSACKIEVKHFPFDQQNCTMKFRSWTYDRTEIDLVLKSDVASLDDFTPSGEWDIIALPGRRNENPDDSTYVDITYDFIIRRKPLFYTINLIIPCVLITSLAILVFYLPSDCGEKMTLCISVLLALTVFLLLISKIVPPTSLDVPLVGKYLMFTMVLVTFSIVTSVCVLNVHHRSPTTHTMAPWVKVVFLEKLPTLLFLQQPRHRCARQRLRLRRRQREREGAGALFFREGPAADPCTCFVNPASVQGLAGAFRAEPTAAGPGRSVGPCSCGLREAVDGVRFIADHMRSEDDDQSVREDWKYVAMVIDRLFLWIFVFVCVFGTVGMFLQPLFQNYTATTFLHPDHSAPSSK

[4] = Antagonist activity at rat alpha6/ alpha3beta2beta3 nAChR expressed in xenopus oocytes assessed as inhibition of Ach- induced response at -70 mV holding potential preincubated for 5 mins followed by Ach stimulation by voltage-clamp based electrophysiological method; type: cell-based; details: Oocyte
[5] = target: Neuronal acetylcholine receptor; alpha2/beta2 (Rattus norvegicus, UniProt P12389+P12390); assay: Antagonist activity at rat alpha2beta2 nAChR expressed in xenopus oocytes assessed as inhibition of Ach- induced response at -70 mV holding potential preincubated for 5 mins followed by Ach stimulation by voltage-clamp based electrophysiological method; type: cell-based, Oocyte
Chain of Neuronal acetylcholine receptor; alpha2/beta2 (P12389 whole entry): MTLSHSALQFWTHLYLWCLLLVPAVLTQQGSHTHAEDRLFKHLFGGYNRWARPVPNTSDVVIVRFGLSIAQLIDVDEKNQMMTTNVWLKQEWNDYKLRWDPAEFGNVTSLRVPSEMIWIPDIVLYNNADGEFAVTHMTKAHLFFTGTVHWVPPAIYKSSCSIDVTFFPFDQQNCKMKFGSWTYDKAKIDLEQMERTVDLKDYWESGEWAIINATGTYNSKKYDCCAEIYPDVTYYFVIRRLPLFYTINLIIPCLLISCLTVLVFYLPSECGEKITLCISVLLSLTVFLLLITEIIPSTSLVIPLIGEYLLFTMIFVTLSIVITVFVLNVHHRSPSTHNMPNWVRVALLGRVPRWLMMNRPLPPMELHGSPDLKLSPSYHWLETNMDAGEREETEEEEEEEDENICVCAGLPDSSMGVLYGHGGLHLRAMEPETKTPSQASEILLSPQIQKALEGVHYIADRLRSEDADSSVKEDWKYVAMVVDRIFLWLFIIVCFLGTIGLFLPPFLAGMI
Chain of Neuronal acetylcholine receptor; alpha2/beta2 (P12390 whole entry): as the sequence (P12390 whole entry) above

[6] = target: Neuronal acetylcholine receptor; alpha2/beta4 (Rattus norvegicus, UniProt P12389+P12392); assay: Antagonist activity at rat alpha2beta4 nAChR expressed in xenopus oocytes assessed as inhibition of Ach- induced response at -70 mV holding potential preincubated for 5 mins followed by Ach stimulation by voltage-clamp based electrophysiological method; type: cell-based, Oocyte
Chain of Neuronal acetylcholine receptor; alpha2/beta4 (P12389 whole entry): as the sequence (P12389 whole entry) above
Chain of Neuronal acetylcholine receptor; alpha2/beta4 (P12392 whole entry): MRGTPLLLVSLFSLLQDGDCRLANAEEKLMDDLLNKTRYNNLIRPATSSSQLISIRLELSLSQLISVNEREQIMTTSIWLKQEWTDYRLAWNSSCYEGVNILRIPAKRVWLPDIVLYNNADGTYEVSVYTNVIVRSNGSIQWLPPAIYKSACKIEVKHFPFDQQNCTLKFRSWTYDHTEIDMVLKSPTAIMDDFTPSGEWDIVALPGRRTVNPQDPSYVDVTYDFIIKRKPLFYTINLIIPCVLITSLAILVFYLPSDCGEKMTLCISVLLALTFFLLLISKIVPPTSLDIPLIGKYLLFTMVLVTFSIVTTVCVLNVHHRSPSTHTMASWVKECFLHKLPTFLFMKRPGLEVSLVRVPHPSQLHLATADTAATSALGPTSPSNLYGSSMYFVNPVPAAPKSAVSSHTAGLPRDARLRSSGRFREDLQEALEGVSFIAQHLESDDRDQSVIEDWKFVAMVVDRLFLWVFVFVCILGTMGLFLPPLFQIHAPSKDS

[7] = target: Neuronal acetylcholine receptor; alpha3/beta4 (Rattus norvegicus, UniProt P04757+P12392); assay: Antagonist activity at rat alpha3beta4 nAChR expressed in xenopus oocytes assessed as inhibition of Ach- induced response at -70 mV holding potential preincubated for 5 mins followed by Ach stimulation by voltage-clamp based electrophysiological method; type: cell-based, Oocyte
Chain of Neuronal acetylcholine receptor; alpha3/beta4 (P04757 whole entry): as the sequence (P04757 whole entry) above
Chain of Neuronal acetylcholine receptor; alpha3/beta4 (P12392 whole entry): as the sequence (P12392 whole entry) above

[8] = target: Neuronal acetylcholine receptor; alpha4/beta2 (Rattus norvegicus, UniProt P09483+P12390); assay: Antagonist activity at rat alpha4beta2 nAChR expressed in xenopus oocytes assessed as inhibition of Ach- induced response at -70 mV holding potential preincubated for 5 mins followed by Ach stimulation by voltage-clamp based electrophysiological method; type: cell-based, Oocyte
Chain of Neuronal acetylcholine receptor; alpha4/beta2 (P09483 whole entry): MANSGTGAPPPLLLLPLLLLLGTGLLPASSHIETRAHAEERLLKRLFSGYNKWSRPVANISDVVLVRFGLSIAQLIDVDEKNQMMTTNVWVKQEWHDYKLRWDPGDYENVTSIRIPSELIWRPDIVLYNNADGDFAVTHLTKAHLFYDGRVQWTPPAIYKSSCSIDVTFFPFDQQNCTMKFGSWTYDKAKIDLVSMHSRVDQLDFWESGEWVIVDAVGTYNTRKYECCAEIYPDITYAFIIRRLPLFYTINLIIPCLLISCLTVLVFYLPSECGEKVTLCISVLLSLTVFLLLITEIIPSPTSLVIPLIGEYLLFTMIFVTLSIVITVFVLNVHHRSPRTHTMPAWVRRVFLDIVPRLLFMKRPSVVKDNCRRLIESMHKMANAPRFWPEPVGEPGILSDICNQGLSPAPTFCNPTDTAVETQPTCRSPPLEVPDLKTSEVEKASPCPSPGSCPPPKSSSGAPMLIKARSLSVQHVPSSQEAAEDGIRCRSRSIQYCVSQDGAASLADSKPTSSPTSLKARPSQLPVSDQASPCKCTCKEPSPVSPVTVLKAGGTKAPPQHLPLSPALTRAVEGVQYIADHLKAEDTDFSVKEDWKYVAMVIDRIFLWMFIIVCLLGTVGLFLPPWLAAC
Chain of Neuronal acetylcholine receptor; alpha4/beta2 (P12390 whole entry): as the sequence (P12390 whole entry) above

[9] = target: Neuronal acetylcholine receptor; alpha4/beta4 (Rattus norvegicus, UniProt P09483+P12392); assay: Antagonist activity at rat alpha4beta4 nAChR expressed in xenopus oocytes assessed as inhibition of Ach- induced response at -70 mV holding potential preincubated for 5 mins followed by Ach stimulation by voltage-clamp based electrophysiological method; type: cell-based, Oocyte
Chain of Neuronal acetylcholine receptor; alpha4/beta4 (P09483 whole entry): as the sequence (P09483 whole entry) above
Chain of Neuronal acetylcholine receptor; alpha4/beta4 (P12392 whole entry): as the sequence (P12392 whole entry) above

[10] = target: Nicotinic acetylcholine receptor alpha9/alpha10 (Rattus norvegicus, UniProt P43144+Q9JLB5); assay: Antagonist activity at rat alpha9alpha10 nAChR expressed in xenopus oocytes assessed as inhibition of Ach- induced response at -70 mV holding potential preincubated for 5 mins followed by Ach stimulation by voltage-clamp based electrophysiological method; type: cell-based, Oocyte
Chain of Nicotinic acetylcholine receptor alpha9/alpha10 (P43144 whole entry): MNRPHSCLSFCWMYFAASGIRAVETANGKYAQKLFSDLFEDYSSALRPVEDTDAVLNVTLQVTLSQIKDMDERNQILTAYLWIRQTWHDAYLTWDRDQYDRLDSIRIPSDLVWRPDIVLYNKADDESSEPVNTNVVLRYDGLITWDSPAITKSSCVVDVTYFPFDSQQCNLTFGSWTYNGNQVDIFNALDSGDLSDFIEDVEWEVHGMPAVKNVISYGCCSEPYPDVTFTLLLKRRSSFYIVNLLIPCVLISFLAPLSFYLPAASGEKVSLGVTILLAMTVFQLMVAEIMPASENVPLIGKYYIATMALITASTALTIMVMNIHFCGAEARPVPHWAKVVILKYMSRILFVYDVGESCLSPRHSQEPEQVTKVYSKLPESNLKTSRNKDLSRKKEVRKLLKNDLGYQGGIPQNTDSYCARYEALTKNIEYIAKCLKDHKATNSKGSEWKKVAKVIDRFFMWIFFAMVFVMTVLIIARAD
Chain of Nicotinic acetylcholine receptor alpha9/alpha10 (Q9JLB5 whole entry): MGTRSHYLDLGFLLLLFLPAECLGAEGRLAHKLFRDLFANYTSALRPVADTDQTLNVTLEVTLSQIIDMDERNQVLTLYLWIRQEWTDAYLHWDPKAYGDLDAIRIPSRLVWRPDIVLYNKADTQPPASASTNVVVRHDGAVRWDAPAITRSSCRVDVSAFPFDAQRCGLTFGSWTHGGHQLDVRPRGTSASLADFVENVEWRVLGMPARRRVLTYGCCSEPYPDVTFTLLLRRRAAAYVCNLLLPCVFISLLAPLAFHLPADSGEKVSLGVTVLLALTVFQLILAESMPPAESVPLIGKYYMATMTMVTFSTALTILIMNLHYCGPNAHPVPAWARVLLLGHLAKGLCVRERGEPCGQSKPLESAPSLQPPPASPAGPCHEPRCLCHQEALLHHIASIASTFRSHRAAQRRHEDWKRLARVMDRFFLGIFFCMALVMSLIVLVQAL

[11] = target: T1, Nicotinic acetylcholine receptor alpha6/alpha3/beta4; assay: Antagonist activity at rat alpha6/alpha3beta4 nAChR expressed in xenopus oocytes assessed as inhibition of Ach- induced response at 10^-5 M at -70 mV holding potential preincubated for 5 mins followed by Ach stimulation by voltage-clamp based electrophysiological method relative to control; type: cell-based; design: scale not given: the % may be the effect or the level left; details: Oocyte, filed as antagonist, dose 1.0 10^-5M
[12] = target: Nicotinic acetylcholine receptor alpha9/alpha10 (Rattus norvegicus) (UniProt P43144+Q9JLB5); assay: Antagonist activity at rat alpha9alpha10 nAChR expressed in xenopus oocytes assessed as inhibition of Ach- induced response at 10 uM at -70 mV holding potential preincubated for 5 mins followed by Ach stimulation by voltage-clamp based electrophysiological method; type: cell-based; details: Oocyte
[13] = target: Neuronal acetylcholine receptor; alpha2/beta2 (Rattus norvegicus) (UniProt P12389+P12390); assay: Antagonist activity at rat alpha2beta2 nAChR expressed in xenopus oocytes assessed as inhibition of Ach- induced response at 10 uM at -70 mV holding potential preincubated for 5 mins followed by Ach stimulation by voltage-clamp based electrophysiological method; type: cell-based; details: Oocyte
[14] = target: Neuronal acetylcholine receptor; alpha2/beta4 (Rattus norvegicus) (UniProt P12389+P12392); assay: Antagonist activity at rat alpha2beta4 nAChR expressed in xenopus oocytes assessed as inhibition of Ach- induced response at 10 uM at -70 mV holding potential preincubated for 5 mins followed by Ach stimulation by voltage-clamp based electrophysiological method; type: cell-based; details: Oocyte
[15] = target: Neuronal acetylcholine receptor; alpha3/beta4 (Rattus norvegicus) (UniProt P04757+P12392); assay: Antagonist activity at rat alpha3beta4 nAChR expressed in xenopus oocytes assessed as inhibition of Ach- induced response at 10 uM at -70 mV holding potential preincubated for 5 mins followed by Ach stimulation by voltage-clamp based electrophysiological method; type: cell-based; details: Oocyte
[16] = target: Neuronal acetylcholine receptor; alpha4/beta2 (Rattus norvegicus) (UniProt P09483+P12390); assay: Antagonist activity at rat alpha4beta2 nAChR expressed in xenopus oocytes assessed as inhibition of Ach- induced response at 10 uM at -70 mV holding potential preincubated for 5 mins followed by Ach stimulation by voltage-clamp based electrophysiological method; type: cell-based; details: Oocyte
[17] = target: Neuronal acetylcholine receptor; alpha4/beta4 (Rattus norvegicus) (UniProt P09483+P12392); assay: Antagonist activity at rat alpha4beta4 nAChR expressed in xenopus oocytes assessed as inhibition of Ach- induced response at 10 uM at -70 mV holding potential preincubated for 5 mins followed by Ach stimulation by voltage-clamp based electrophysiological method; type: cell-based; details: Oocyte
[18] = target: Neuronal acetylcholine receptor; alpha3/beta2 (Rattus norvegicus) (UniProt P04757+P12390); assay: Antagonist activity at rat alpha3beta2 nAChR expressed in xenopus oocytes assessed as inhibition of Ach- induced response at 10^-5 M at -70 mV holding potential preincubated for 5 mins followed by Ach stimulation by voltage-clamp based electrophysiological method relative to control; type: cell-based; design: scale not given: the % may be the effect or the level left; details: Oocyte, filed as antagonist, dose 1.0 10^-5M

Row | SMILES | IC50 [1] | IC50 [2] | IC50 [3] | IC50 [4] | IC50 [5] | IC50 [6] | IC50 [7] | IC50 [8] | IC50 [9] | IC50 [10] | Activity [11] | inhibition [12] | inhibition [13] | inhibition [14] | inhibition [15] | inhibition [16] | inhibition [17] | Activity [18]
1 | C[C@@H]1NC(=O)[C@@H]2CSSC[C@H](N)C(=O)N[C@@H](CSSC[C@@H](C(N)=O)NC(=O)[C@H](Cc3cnc[nH]3)NC(=O)[C@H](CCC(=O)O)NC(=O)[C@H](Cc3cnc[nH]3)NC1=O)C(=O)N[C@@H](CO)C(=O)N[C@@H](CC(N)=O)C(=O)N1CCC[C@H]1C(=O)N1CCC[C@H]1C(=O)N2 (H-CCSNPPCAHEHC-NH2; disulfide 1-7, 2-12) | 1.81 µM | > 10 µM | 4.63 µM | 3.3 µM | > 10 µM | > 10 µM | > 10 µM | > 10 µM | > 10 µM | > 10 µM | < 50% | inactive | inactive | inactive | inactive | inactive | inactive | –
2 | C[C@@H]1NC(=O)[C@@H]2CSSC[C@H](NC(=O)[C@@H](N)CCC(N)=O)C(=O)N[C@@H](CSSC[C@@H](C(=O)N[C@@H](CCCNC(=N)N)C(=O)O)NC(=O)[C@H](Cc3cnc[nH]3)NC(=O)[C@H](CCC(=O)O)NC(=O)[C@H](Cc3cnc[nH]3)NC1=O)C(=O)N[C@@H](CO)C(=O)N[C@@H](CC(N)=O)C(=O)N1CCC[C@H]1C(=O)N1CCC[C@H]1C(=O)N2 (H-QCCSNPPCAHEHCR-OH; disulfide 2-8, 3-13) | 1.76 µM | > 10 µM | > 10 µM | 5.3 µM | > 10 µM | > 10 µM | > 10 µM | > 10 µM | > 10 µM | > 10 µM | – | inactive | inactive | inactive | inactive | inactive | inactive | < 50%
